# Reference: patent US9216964B2, “Hedgehog pathway modulators” (Novartis AG, priority 2008, dated 2015)
# Read-outs that look alike come from different tables or passages of the source.
# Test system: hedgehog signaling pathway
# Assay: Gli-Luc Reporter Assay for Hh Pathway Inhibition (TMHh-12 cells, pTA-8×Gli-Luc reporter)
# Assay type: cell-based, Mouse
# Procedure: Compounds of the present invention are assayed to evaluate their capacity to inhibit the hedgehog signaling pathway.
# Gli-Luc Reporter Assay for Hh Pathway Inhibition
# Mouse TM3 cells (obtained from American Type Culture Collection, ATCC, Manassas, Va.) are cultured in DMEM/F12 medium (Gibco/Invitrogen, Carlsbad, Calif.) supplemented with 5% heat inactivated horse serum and 2.5% FBS (Gibco/Invitrogen, Carlsbad, Calif.), 50 unit/mL penicillin and 50 μg/mL of streptomycin (Gibco/Invitrogen, Carlsbad, Calif.) at […] with 5% CO2 in air atmosphere. TM3 cells were transfected with pTA-8×Gli-Luc reporter plasmid. A stably transfected clone termed TMHh-12 was selected. […] To evaluate the IC50s of the antagonists, 8000 TMHh-12 cells were plated into each wells in 384-well plates with 50% DMEM/F12 medium supplemented with 2% FBS. After 12 hours, Hh pathway is activated by adding recombinant mouse Shh protein (expressed in E. coli, 8 μg/mL) or by adding Smo agonists. The testing compounds are added into plates with different concentrations. After 48 hours, the firefly luciferase luciferase activities are assayed with the Bright-Glo™ Luciferase Assay System (Promega, Madison, Wis.). The IC50 is measured when the effect of the compound reduces the luminescence signal by 50%. Toxicity of these compounds are evaluated in TM3 cells using CellTiter Glo assays or by TM3-Luc cell line (a TM3 cell stably transfected with a constitutive luciferase expression vector).
# [1] = Mus musculus, TMHh12, enzymatic and cellular assays for the inhibition of hedgehog signaling pathways, read-out: IC50 Ranges
# [2] = Mus musculus, TMHh12, Ag1.5 1 nM, read-out: Hedgehog Inhibition IC50 (nM) (Ag1.5 1 nM)
# [3] = enzymatic and cellular assays for the inhibition of hedgehog signaling pathways, read-out: IC50 Ranges
Structure (SMILES),IC50 [1],IC50 [2],IC50 [3]
Cc1ccc(Nc2cccc3c2CCN(CC(F)(F)CO)C3)cc1-c1nc2ccccc2[nH]1 [Compound 85],0.001 to 1 nM,–,–
Cc1cc2c(cn1)cc(-c1cc(Nc3cccc4c3CCN(S(C)(=O)=O)C4)ccc1C)c(=O)n2C [Compound 116],100 to 1000 nM,694 nM,–
FC(F)(F)CN1CCc2c(cccc2Nc2ccc(Cl)c(-c3ncc(-c4ccccc4)[nH]3)c2)C1 [Compound 62],0.001 to 1 nM,–,–
Cc1cnc(-c2cc(Nc3cccc4c3CCN(S(C)(=O)=O)C4)ccc2C)cc1C [Compound 241],0.001 to 1 nM,–,–
OC1CCC(N2CCc3c(cccc3Nc3ccc(Cl)c(-c4ncc(-c5ccccc5)[nH]4)c3)C2)CC1 (centres unmarked) [Compound 37],0.001 to 1 nM,0.73 nM,–
Cc1ccc(Nc2cccc3c2CCN(S(C)(=O)=O)C3)cc1-c1ncc(F)cc1F [Compound 272],1 to 10 nM,–,–
CCS(=O)(=O)CCN1CCc2c(cccc2Nc2ccc(C)c(-c3ncccc3F)c2)C1 [Compound 283],1 to 10 nM,–,–
CC(C)(CO)C(=O)N1CCc2c(cccc2Nc2ccc(Cl)c(-c3ncc(-c4ccccc4)[nH]3)c2)C1 [Compound 14],0.001 to 1 nM,–,–
COc1ccc(-c2nc(Nc3cccc4c3CCN(S(=O)(=O)C(C)C)C4)ccc2C)nn1 [Compound 319],1 to 10 nM,–,–
O=C1c2cccc(Nc3ccc(Cl)c(-c4ncc(-c5ccccc5)[nH]4)c3)c2CCN1C1(CO)CC1 [Compound 88],0.001 to 1 nM,–,–
COc1ccc(NC(=O)c2cc(Nc3cccc4c3CCN(S(C)(=O)=O)C4)ccc2C)cc1 [Compound 161],0.001 to 1 nM,–,–
[O-][S+]1CCC(N2CCc3c(cccc3Nc3ccc(Cl)c(-c4ncc(-c5ccccc5)[nH]4)c3)C2)CC1 (centres unmarked) [Compound 12],0.001 to 1 nM,–,–
Cc1ccc(Nc2cccc3c2CCN(S(C)(=O)=O)C3)cc1-c1ncc(-c2cncnc2)[nH]1 [Compound 59],1 to 10 nM,–,–
Cc1ccc(-c2cc(Nc3cccc4c3CCN(CCC(F)(F)F)C4)ccc2C)nc1 [Compound 251],0.001 to 1 nM,–,–
O=S(=O)(NCCO)N1CCc2c(cccc2Nc2ccc(Cl)c(-c3ncc(-c4ccccc4)[nH]3)c2)C1 [Compound 17],0.001 to 1 nM,–,–
Cc1ccc(Nc2cccc3c2CCN(CCC(F)(F)F)C3)cc1-c1ccc(C#N)cn1 [Compound 196],1 to 10 nM,–,–
OCC(F)(F)CN1CCc2c(cccc2Nc2ccc(Cl)c(-c3nc(-c4ccccc4)c[nH]3)c2)C1 [Compound 71],0.001 to 1 nM,–,–
Cc1ccc(Nc2cccc3c2CCN(CCS(C)(=O)=O)C3)cc1-c1ccc(Cl)cn1 [Compound 257],0.001 to 1 nM,–,–
Cc1ccc(Nc2cccc3c2CCN(S(C)(=O)=O)C3)cc1-c1ncc(Cl)cc1F [Compound 290],0.001 to 1 nM,–,–
CS(=O)(=O)N1CCc2c(cccc2Nc2ccc(Cl)c(-c3ccc(F)cn3)n2)C1 [Compound 303],1 to 10 nM,–,–
Cc1ccc(Nc2cccc3c2CCN(S(C)(=O)=O)C3)cc1C(=O)Nc1ccccc1 [Compound 159],0.001 to 1 nM,0.1 nM,–
Cc1ncc(Nc2cccc3c2CCN(S(C)(=O)=O)C3)cc1-c1ccc(F)cn1 [Compound 202],10 to 100 nM,–,–

Structure (SMILES),IC50 [1],IC50 [2],IC50 [3]
Clc1ccc(Nc2cccc3c2CCN(c2nn[nH]n2)C3)cc1-c1ncc(-c2ccccc2)[nH]1 [Compound 87],1 to 10 nM,–,–
CC(=O)N1CCc2c(cccc2Nc2ccc(Cl)c(-c3ncc(-c4ccccc4)[nH]3)c2)C1 [Compound 56],0.001 to 1 nM,–,–
CC(C)(C(=O)O)C(=O)N1CCc2c(cccc2Nc2ccc(Cl)c(-c3ncc(-c4ccccc4)[nH]3)c2)C1 [Compound 67],1 to 10 nM,–,–
Cc1ccc(-c2cc(Nc3cccc4c3CCN([C@@H]3CCS(=O)(=O)C3)C4)ccc2C)nc1 [Compound 279],0.001 to 1 nM,–,–
Cc1ccc(Nc2cccc3c2CCN(S(C)(=O)=O)C3)cc1-c1cccc(C(=O)N2CCCC2)c1 [Compound 140],1000 to 10000 nM,2940 nM,–
[O-][S+]1CCC(N2CCc3c(cccc3Nc3ccc(Cl)c(-c4ncc(-c5ccccc5)[nH]4)c3)C2)CC1 (centres unmarked) [Compound 1],–,–,0.001 to 1 nM
O=C(O)C1(C(=O)N2CCc3c(cccc3Nc3ccc(Cl)c(-c4ncc(-c5ccccc5)[nH]4)c3)C2)CC1 [Compound 68],0.001 to 1 nM,–,–
Clc1ccc(Nc2cccc3c2CCNC3)cc1-c1ncc(-c2ccccc2)[nH]1 [Compound 57],10 to 100 nM,22.7 nM,–
CN(C)c1ccc2nc(-c3cc(Nc4cccc5c4CCN(S(C)(=O)=O)C5)ccc3Cl)[nH]c2c1 [Compound 16],1 to 10 nM,3.8 nM,–
COc1ccc(-c2cc(Nc3cccc4c3CCN(C3CS(=O)(=O)C3)C4)ccc2C)nn1 [Compound 276],1 to 10 nM,9.8 nM,–
Cc1ccc(Nc2cccc3c2CCN(C2CCS(=O)(=O)CC2)C3)cc1-c1ncc(-c2cccnc2)[nH]1 [Compound 75],–,–,1 to 10 nM
Cc1ccc(Nc2cccc3c2CCN([C@@H]2CCS(=O)(=O)C2)C3)cc1-c1ncccc1F [Compound 341],–,–,0.001 to 1 nM
O=C(O)C(=O)N1CCc2c(cccc2Nc2ccc(Cl)c(-c3ncc(-c4ccccc4)[nH]3)c2)C1 [Compound 83],10 to 100 nM,–,–
COc1cnc(-c2cc(Nc3cccc4c3CCN(C3CCS(=O)(=O)C3)C4)ccc2C)cn1 (centres unmarked) [Compound 266],1 to 10 nM,–,–
COc1cccc(-c2cnc(-c3cc(Nc4cccc5c4CCN(S(C)(=O)=O)C5)ccc3C)[nH]2)n1 [Compound 104],0.001 to 1 nM,–,–
Cc1cc(C#N)ccc1-c1cccc(Nc2cccc3c2CCN(S(C)(=O)=O)C3)c1 [Compound 168],100 to 1000 nM,–,–
Cc1ccc(-c2cc(Nc3cccc4c3CCN(CCS(C)(=O)=O)C4)ccc2C)nc1 [Compound 223],0.001 to 1 nM,–,–
Cc1ccc(Nc2cccc3c2CCN(S(C)(=O)=O)C3)cc1-c1ccc(F)cn1 [Compound 164],0.001 to 1 nM,–,–
Cc1ccc(Nc2cccc3c2CCN(CCC(F)(F)F)C3)cc1-c1ccc(F)cn1 [Compound 252],0.001 to 1 nM,–,–
Cc1ccc(Nc2cccc3c2CCN(C2CCS(=O)(=O)CC2)C3)cc1-c1ncccc1F [Compound 269],0.001 to 1 nM,–,–
COc1ccc(-c2cc(Nc3cccc4c3CCN(S(C)(=O)=O)C4)ccc2C)nn1 [Compound 183],1 to 10 nM,–,–
Cc1ccc(Nc2cccc3c2CCN(CC2(C)CC2)C3)cc1-c1nc2ccccc2[nH]1 [Compound 97],1 to 10 nM,–,–

Structure (SMILES),IC50 [1],IC50 [2],IC50 [3]
Cc1ccc(Nc2cccc3c2CCN(S(C)(=O)=O)C3)cc1C(=O)Nc1ccccn1 [Compound 162],1 to 10 nM,2.1 nM,–
CS(=O)(=O)N1CCc2c(cccc2Nc2ccc(Cl)c(-c3nc(-c4ccccc4)co3)c2)C1 [Compound 96],100 to 1000 nM,263 nM,–
Cc1ccc(Nc2cccc3c2CCN(S(C)(=O)=O)C3)cc1-c1cc2ccccc2cn1 [Compound 229],0.001 to 1 nM,0.3 nM,–
Cc1ccc(Nc2cccc3c2CCN(S(C)(=O)=O)C3)cc1-c1ncccc1F [Compound 227],0.001 to 1 nM,–,–
CC(C)C(=O)N1CCc2c(cccc2Nc2ccc(Cl)c(-c3ncc(-c4ccccc4)[nH]3)c2)C1 [Compound 55],1 to 10 nM,–,–
Cc1ccc(Nc2cccc3c2CCN(S(C)(=O)=O)C3)cc1-c1ccc(Cn2cccn2)cc1 [Compound 118],100 to 1000 nM,–,–
CC(O)C(=O)N1CCc2c(cccc2Nc2ccc(Cl)c(-c3ncc(-c4ccccc4)[nH]3)c2)C1 (centres unmarked) [Compound 10],0.001 to 1 nM,–,–
Cc1ccc(-c2cc(Nc3ncnc4c3CCN(S(C)(=O)=O)C4)ccc2C)nc1 [Compound 248],1 to 10 nM,–,–
Cc1ccc(Nc2cccc3c2CCN(CC(C)(C)O)C3)cc1-c1ccc(F)cn1 [Compound 181],1 to 10 nM,–,–
CCS(=O)(=O)CCN1CCc2c(cccc2Nc2ccc(C)c(-c3ccc(OC)nn3)c2)C1 [Compound 282],1 to 10 nM,–,–
Cc1ccc(Nc2cccc3c2CCN(S(C)(=O)=O)C3)cc1-c1cc2ccccc2n1C [Compound 152],10 to 100 nM,–,–
OC[C@H](O)[C@@H](O)CN1CCc2c(cccc2Nc2ccc(Cl)c(-c3ncc(-c4ccccc4)[nH]3)c2)C1 [Compound 48],1 to 10 nM,–,–
Cc1ccc(-c2cc(Nc3nccc4c3CCN(S(C)(=O)=O)C4)ccc2C)nc1 [Compound 236],10 to 100 nM,–,–
COc1ccnc(-c2cc(Nc3cccc4c3CCN(S(C)(=O)=O)C4)ccc2C)c1 [Compound 230],0.001 to 1 nM,–,–
Cc1ccc(Nc2cccc3c2CCN(S(C)(=O)=O)C3)cc1-c1ccc(-c2ccccc2)cc1 [Compound 109],100 to 1000 nM,–,–
Cc1ccc(Nc2cccc3c2CCN(C[C@H](O)CO)C3=O)cc1-c1nc2ccccc2[nH]1 [Compound 81],10 to 100 nM,–,–
OCC1(N2CCc3c(cccc3Nc3ccc(Cl)c(-c4ncc(-c5ccccc5)[nH]4)c3)C2)CC1 [Compound 84],0.001 to 1 nM,–,–
Cc1ccc(Nc2ncnc3c2CCN(S(C)(=O)=O)C3)cc1-c1cc2ccccc2cn1 [Compound 307],0.001 to 1 nM,–,–
Cc1ccc(Nc2cccc3c2CCN(CC2(C)CC2)C3=O)cc1-c1nc2ccccc2[nH]1 [Compound 127],10 to 100 nM,–,–
Cc1ccc(Nc2cccc3c2CCN(S(C)(=O)=O)C3)cc1-c1ncc(-c2cccnc2)[nH]1 [Compound 60],0.001 to 1 nM,–,–
Cc1ccc(Nc2cccc3c2CCN(C(=O)C(C)(CO)CO)C3)cc1-c1nc2ccccc2[nH]1 [Compound 70],0.001 to 1 nM,–,–
Cc1ccc(Nc2cccc3c2CCN(S(C)(=O)=O)C3)cc1-c1nc2ccccc2[nH]1 [Compound 5],0.001 to 1 nM,0.1 nM,–
